Laboratory results: patent US9422240B2, “Partially saturated nitrogen-containing heterocyclic compound” (TAISHO PHARMACEUTICAL CO., LTD, priority 2012, dated 2016)
Where a name gives a salt, the structure may show the parent alone.

Assays:
[1] = biological target: T1, human PHD2 (Homo sapiens (Human), UniProt Q9GZT9); experiment: Test 2: human PHD2 inhibitory activity, fluorescence polarization assay of HIF-1α peptide proline hydroxylation; format: biochemical; conditions: for IC50: human PHD2, fluorescence polarization assay, 20-min incubation at 30° C.; for inhibition at 1 µM: read-out: Percent inhibition (% at 1 μM)
Summary of the method: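 A 19-mer HIF-1α peptide served as substrate, with the reaction started by 40 ng/well human PHD2 (cell lysate of NM_022051-transfected cells) and run 20 min at 30° C. before EDTA stop. Hydroxylated product bound anti-HIF-OH antibody, read by fluorescence polarization versus no-compound control.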

[2] = biological target: T1, human PHD2; experiment: Test 1: human PHD2 inhibitory activity, [14C]-2-oxoglutarate to [14C]-succinic acid radiometric assay with HIF-1α peptide; format: biochemical; conditions: read-out: Percent inhibition (% at 1 μM)
Summary of the method: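 Activity was measured by radiometric counting of [14C]-succinic acid formed during prolyl hydroxylation of a 19-mer HIF-1α peptide, after DNPH removal of residual [14C]-2-oxoglutarate. Baculovirus-expressed human PHD2 lysate (4 μg/well) reacted for 15 min at 37° C. Substrate-free and compound-free wells served as reference points for inhibition.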

[3] = test compound's concentration 1 μM, Test 2, fluorescence polarization assay
[4] = test compound's concentration 1 μM, Test 1, [14C]-2-oxoglutarate radiometric assay

T1 sequence (Q9GZT9 whole entry): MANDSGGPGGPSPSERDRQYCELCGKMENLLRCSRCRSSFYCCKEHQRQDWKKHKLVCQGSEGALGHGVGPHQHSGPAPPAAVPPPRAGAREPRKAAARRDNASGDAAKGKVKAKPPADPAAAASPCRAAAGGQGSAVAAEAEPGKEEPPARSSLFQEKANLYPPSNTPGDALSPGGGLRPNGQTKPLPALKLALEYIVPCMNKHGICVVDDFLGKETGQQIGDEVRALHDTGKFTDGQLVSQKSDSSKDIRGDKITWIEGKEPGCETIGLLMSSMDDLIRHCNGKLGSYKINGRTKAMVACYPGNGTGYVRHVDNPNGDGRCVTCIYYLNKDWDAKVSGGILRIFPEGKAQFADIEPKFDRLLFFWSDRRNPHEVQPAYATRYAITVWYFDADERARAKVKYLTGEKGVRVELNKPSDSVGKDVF

| Structure (SMILES) | IC50 [1] | inhibition at 1 µM [1, 3] | inhibition at 1 µM [2, 4] | inhibition at 1 µM [1] | inhibition at 1 µM [2] |
| --- | --- | --- | --- | --- | --- |
| O=C(O)CNC(=O)C1=C(O)CCN(Cc2ccc(Oc3ccc(C4CC4)cc3)nc2)C1=O [Ex. 1-296] | 15 nM | 102% | 100% | – | – |
| Cc1ccc(CN2CCC(O)=C(C(=O)NCC(=O)O)C2=O)c(C)c1 [Ex. 1-60] | – | 76% | 66% | – | – |
| O=C(O)CNC(=O)C1=C(O)C2(CCC2)CN(Cc2ccc(-c3ccccc3)cc2)C1=O [Ex. 1-15] | – | 86% | 72% | – | – |
| CC1(C)CC(O)=C(C(=O)NCC(=O)O)C(=O)N1Cc1ccc(C(F)(F)F)c(OC(F)F)c1 [Ex. 1-192] | – | 49% | 48% | – | – |
| CC1CN(Cc2ccc(OC(F)(F)F)cc2)C(=O)C(C(=O)NCC(=O)O)=C1O (stereo not shown) [Ex. 1-3, N-({4-Hydroxy-5-methyl-2-oxo-1-[4-(trifluoromethoxy)benzyl]-1,2,5,6-tetrahydropyridin-3-yl}carbonyl)glycine sodium salt] | – | – | – | 78% | 74% |
| O=C(O)CNC(=O)C1=C(O)CCN(Cc2ccc(-c3ccsc3)cc2)C1=O [Ex. 2-18] | – | 91% | 98% | – | – |
| CC1CC(O)=C(C(=O)NCC(=O)O)C(=O)N1Cc1ccc(-c2ccc(F)cc2)cc1 (stereo not shown) [Ex. 1-177] | – | 92% | 93% | – | – |
| CC1CC(O)=C(C(=O)NCC(=O)O)C(=O)N1Cc1ccc(-c2ccccn2)cc1 (stereo not shown) [Ex. 1-77] | – | 85% | 74% | – | – |
| O=C(O)CNC(=O)C1=C(O)CCN(Cc2ccc(-c3cccnc3)cc2)C1=O [Ex. 2-7] | – | 91% | 88% | – | – |
| O=C(O)CNC(=O)C1=C(O)CCN(Cc2ccc(Oc3ccc(Cl)cn3)cc2)C1=O [Ex. 1-289] | 68 nM | 98% | 95% | – | – |
| COc1cccc(-c2ccc(CN3CCC(O)=C(C(=O)NCC(=O)O)C3=O)cc2)c1 [Ex. 2-26] | – | 95% | 90% | – | – |
| CC(C)c1cccc(-c2ccc(CN3CCC(O)=C(C(=O)NCC(=O)O)C3=O)cc2)c1 [Ex. 2-9] | – | 82% | 78% | – | – |
| CC1(C)CC(O)=C(C(=O)NCC(=O)O)C(=O)N1Cc1csc(-c2ccccc2)n1 [Ex. 1-281] | – | 77% | 70% | – | – |
| O=C(O)CNC(=O)C1=C(O)CCN(Cc2ccc(Cl)c(OC(F)(F)F)c2)C1=O [Ex. 1-160] | – | 85% | 74% | – | – |
| O=C(O)CNC(=O)C1=C(O)CCN(Cc2ccc(C(F)(F)F)c(C3CCC3)c2)C1=O [Ex. 1-245] | – | 78% | 80% | – | – |
| O=C(O)CNC(=O)C1=C(O)CCN(Cc2ccccc2Oc2ccc(F)cc2)C1=O [Ex. 1-290] | – | 86% | 63% | – | – |
| CC1CN(Cc2cnc(-c3ccccc3)s2)C(=O)C(C(=O)NCC(=O)O)=C1O (stereo not shown) [Ex. 1-104] | – | 94% | 87% | – | – |
| O=C(O)CNC(=O)C1=C(O)CCN(Cc2ccc(OC(F)(F)C(F)F)cc2)C1=O [Ex. 1-136] | – | 88% | 91% | – | – |
| CCC1(CC)CC(O)=C(C(=O)NCC(=O)O)C(=O)N1Cc1ccc(C(F)(F)F)cc1 [Ex. 1-183] | – | 50% | 39% | – | – |
| O=C(O)CNC(=O)C1=C(O)C2CCCCC2N(Cc2ccc(C(F)(F)F)cc2)C1=O (stereo not shown) [Ex. 1-143] | – | 65% | 41% | – | – |
| O=C(O)CNC(=O)C1=C(O)CCN(c2ccc(Oc3ccccc3)cc2)C1=O [Ex. 1-40] | – | 91% | 79% | – | – |
| O=C(O)CNC(=O)C1=C(O)C2(CC2)CN(Cc2ccc(Cl)cc2)C1=O [Ex. 1-215] | – | 86% | 85% | – | – |
| CC1(COCc2ccc(CN3CCC(O)=C(C(=O)NCC(=O)O)C3=O)cc2)CC1 [Ex. 1-233] | – | 93% | 91% | – | – |
| CC1(C)CC(O)=C(C(=O)NCC(=O)O)C(=O)N1Cc1ccc(OC2CCCC2)cc1 [Ex. 1-272] | – | 82% | 65% | – | – |
| O=C(O)CNC(=O)C1=C(O)CC2(CCC2)N(Cc2ccc(-c3ccccn3)cc2)C1=O [Ex. 1-130] | – | 90% | 89% | – | – |
| CC1(C)CC(O)=C(C(=O)NCC(=O)O)C(=O)N1Cc1ccc(OC(CF)CF)c(Cl)c1 [Ex. 1-188] | – | 63% | 44% | – | – |
| CC1(C)CC(O)=C(C(=O)NCC(=O)O)C(=O)N1Cc1ccc(Cl)c(Cl)c1 [Ex. 1-158] | – | 75% | 67% | – | – |
| COc1ccc(CN2CCC(O)=C(C(=O)NCC(=O)O)C2=O)cc1 [Ex. 1-48] | – | 79% | 67% | – | – |
